According to patent US7795220B2, “Conformationally constrained parathyroid hormones with alpha-helix stabilizers” (The General Hospital Corporation, priority 2003, dated 2010):
Non-standard residues stand in square brackets, D forms with d. Residues, ends and D or L forms follow the SMILES beside them. hArg = N=C(N)NCCCC[C@H](N)C(=O)O; Ac5c = NC1(C(=O)O)CCCC1; Aib = CC(C)(N)C(=O)O

Tests used:
[1] = target: T1, P1R (recombinant P1R chimera) in HKRK-B28 cells (UniProt P25107+P25961, A364S/A509S/A517P/A524T/DEL519-521/E344G/G506A/H528S/I365V/I416T/I429T/K402R/K465R/L320I/M408V/N352H/S511P/S523T/T335G/T421L/T487S/V367L/V433I); assay: biochemical; assay type: binding, opposum/rat chimera; conditions: B28 cells
T1 construct: the opposum P1R from the N-terminus to the mid region of TM3; the rat P1R from the mid region of TM3 to the C-terminus; expressed in transfected cells
T1 sequence (P25107+P25961 fused with the stated changes): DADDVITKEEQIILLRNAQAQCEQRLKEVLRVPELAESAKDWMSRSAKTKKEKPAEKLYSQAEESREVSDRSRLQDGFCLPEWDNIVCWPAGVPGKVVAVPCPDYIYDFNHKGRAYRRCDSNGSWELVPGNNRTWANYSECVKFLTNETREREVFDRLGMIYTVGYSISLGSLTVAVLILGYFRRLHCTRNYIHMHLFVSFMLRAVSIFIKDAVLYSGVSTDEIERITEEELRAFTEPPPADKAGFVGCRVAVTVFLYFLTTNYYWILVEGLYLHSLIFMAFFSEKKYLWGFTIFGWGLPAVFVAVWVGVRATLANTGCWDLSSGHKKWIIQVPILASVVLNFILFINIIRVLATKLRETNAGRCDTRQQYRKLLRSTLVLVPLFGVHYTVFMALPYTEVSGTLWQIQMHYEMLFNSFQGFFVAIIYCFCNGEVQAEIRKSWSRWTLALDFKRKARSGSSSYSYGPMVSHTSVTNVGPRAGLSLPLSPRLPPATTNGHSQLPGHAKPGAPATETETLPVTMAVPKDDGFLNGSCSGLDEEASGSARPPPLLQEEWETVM
Text: (§1) Cell Culture. The cell line HKRK-B28 (Takasu, H., et al., J. Bone Miner. Res. 14:11-20 (1999)) was derived from the porcine kidney cell line, LLC-PK1 by stable transfection with plasmid DNA encoding a recombinant P1R chimera comprised of the opposum P1R from the N-terminus to the mid region of TM3 and the rat P1R from the mid region of TM3 to the C-terminus. The surface density of the P1R in these cells is ˜280,000 receptors per cell. The clonal cell line LdelNt-2 was derived from LLC-PK, cells via stable transfection with a plasmid encoding P1R-delNt, a recombinant human PTH-1 receptor construct in which most of the amino-terminal extracellular domain is deleted. These cells, as well as COS-7 cells and SaOS-2-B10 cells, were cultured at […] in T-75 flasks ([…]) in Dulbecco's modified Eagle's medium (DMEM) supplemented with fetal bovine serum (10%), penicillin G (20 units/ml), streptomycin sulfate (20 μg/ml) and amphotericin B (0.05 μg/ml) in a humidified atmosphere containing 5% CO2. Stock solutions of EGTA/trypsin and antibiotics were from GLBCO; fetal bovine serum was from Hyclone Laboratories (Logan, Utah). COS-7 cells sub-cultured in 24-well plates were transfected with plasmid DNA (200 ng per well) encoding the wild-type human P1R or truncated human P1R deleted for residues (24-181) (Shimizu, M., et al., J. Biol. Chem. 275:21836-21843 (2000)) that was purified by cesium chloride/ethidium bromide density gradient centrifugation, and FuGENE 6 transfection reagent (Roche Indianapolis Ind.) according to the manufacturer's recommended procedure. All cells, in 24-well plates, were treated with fresh media and shifted to 33° C. for 12 to 24 h prior to assay.
Competition Binding. Binding reactions were performed with HKRK-B28 cells or in COS-7 cells in 24-well plates. The cells were rinsed with 0.5 mL of binding buffer, and then treated successively with 100 μL binding buffer, 100 μL of binding buffer containing various amounts of unlabeled competitor ligand, and 100 μL of binding buffer containing ca. 100,000 cpm of ^125I-[Aib^1,3,Nle^8,Gln^10,Har^11,Ala^12,Trp^14,Arg^19,Tyr^21]rPTH(1-21) (SEQ. ID. NO. 36) (ca. 26 fmol; final volume=300 μL). Incubations were 4 to 6 h at 4° C., at which time near equilibrium conditions were attained. Cells were then placed on ice, the binding medium was removed, and the monolayer was rinsed three times with 0.5 mL of cold binding buffer. The cells were subsequently lysed with 0.5 mL 5N NaOH and counted for radioactivity. For each tracer and in each experiment, the non-specific binding was determined as the radioactivity that bound in the presence of the same unlabeled peptide at a concentration of 1 μM, and was ˜1% of total radioactivity added for each tracer. The maximum specific binding (B0) was the total radioactivity bound in the absence of competing ligand, corrected for nonspecific binding, and for each tracer, ranged from 8% to 20% of the total radioactivity added. Nonlinear regression was used to calculate binding IC50 values (see below). Scatchard transformations of homologous competition binding data derived from studies with 26 fmol of ^125I-[Aib^1,3,Nle^8,Gln^10,Har^11,Ala^12,Trp^14, Arg^19,Tyr^21]rPTH(1-21) (SEQ. ID. NO. 36) were employed for estimations of apparent equilibrium dissociation constant (kDapps) and total number of ligand binding sites (Bmax), assuming a single class of binding sites and equal affinities of the iodinated and non iodinated ligand.
Data Calculation. Calculations were performed using Microsoft® Excel. Nonlinear regression analyses of binding and cAMP dose-response data were performed using the four-parameter equation: yp=Min+[(Max−Min)/(1+(IC50/x)^slope)]. The Excel Solver function was utilized for parameter optimization, as described previously (Carter, P. H., et al., Endocrinology 140: 4972-4981 (1999); Bowen, W. P., and Jerman, J. C., Trends in Pharmacol. Sci. 16: 413-417 (1995)). […]

[2] = tested on: P1R (recombinant P1R chimera) in HKRK-B28 cells; assay: cAMP stimulation in HKRK-B28 cells; assay type: cell-based, opposum/rat chimera
Text: as §1
cAMP Stimulation. Stimulation of cells with peptide analogs was performed in 24-well plates. Cells were rinsed with 0.5 mL of binding buffer (50 mM Tris-HCl, 100 mM NaCl, 5 mM KCl, 2 mM CaCl2, 5% heat-inactivated horse serum, 0.5% fetal bovine serum, adjusted to pH 7.5 with HCl) and treated with 200 μL of cAMP assay buffer (Delbecco's modified Eagle's medium containing 2 mM 3-isobutyl-1-methylxanthine, 1 mg/mL bovine serum albumin, 35 mM Hepes-NaOH, pH 7.4) and 100 μL of binding buffer containing varying amounts of peptide analog (final volume=300 μL). The medium was removed after incubation for 30 to 60 minutes at room temperature, and the cells were frozen on dry ice, lysed with 0.5 mL 50 mM HCl, and refrozen ([…]). The cAMP content of the diluted lysate was determined by radioimmunoassay. The EC50 response values were calculated using nonlinear regression (see below).
Data Calculation. Calculations were performed using Microsoft® Excel. Nonlinear regression analyses of binding and cAMP dose-response data were performed using the four-parameter equation: yp=Min+[(Max−Min)/(1+(IC50/x)^slope)]. The Excel Solver function was utilized for parameter optimization, as described previously (Carter, P. H., et al., Endocrinology 140: 4972-4981 (1999); Bowen, W. P., and Jerman, J. C., Trends in Pharmacol. Sci. 16: 413-417 (1995)). Differences between paired data sets were statistically evaluated using a one-tailed Student's t-test, assuming unequal variances for the two sets.

## CC[C@H](C)[C@H](NC(=O)[C@H](CCC(=O)O)NC(=O)C(C)(C)NC(=O)[C@@H](NC(=O)C1(N)CCCC1)C(C)C)C(=O)N[C@@H](CCC(N)=O)C(=O)N[C@@H](CC(C)C)C(=O)N[C@@H](CCSC)C(=O)N[C@@H](Cc1c[nH]cn1)C(=O)N[C@@H](CCC(N)=O)C(=O)N[C@@H](CCCCNC(=N)N)C(=O)N[C@@H](C)C(=O)N[C@@H](CCCCN)C(=O)N[C@@H](Cc1c[nH]c2ccccc12)C(N)=O [[Ac5c^1,Aib^3,M]PTH(1-14), [Ac5c^1,Aib^3,Gln^10,Har^11,Ala^12,Trp^14]PTH(1-14)NH2] (H-[Ac5c]V[Aib]EIQLMHQ[hArg]AKW-NH2)
[1]
  potency for inhibiting tracer binding relative to [Aib1,3,M]PTH(1-14): 2 fold
[2]
  potency for stimulating adenylyl cyclase relative to [Aib1,3,M]PTH(1-14): 2 fold
[2]; HKRK-B28 cells, intracellular cAMP accumulation, read-out: cAMP-stimulating potency (EC50)
  EC50: 0.9 nM
[2]; HKRK-B28 cells, peptide at 10 nM
  increase in cAMP levels relative to basal: 38 fold
